{"source": "PubChem BioAssay AID849", "about": "(SRMLSC, 2007)", "note": "Active and inactive are the calls of the source. No rule for the calls is given here.", "data": [{"test_system": "Saccharomyces cerevisiae lifespan shortening, growth inhibition", "test": "yeast lifespan shortening compounds, dose response (AID 849);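 also: yeast growth read as optical density after two days at 30 degrees C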", "values": [{"smiles": "O=C(CC(O)(C(F)(F)F)C(F)(F)F)Nc1ccc(Cl)c(Cl)c1", "IC50": "12 µM"}, {"smiles": "CCCCCCCCCCCCCCCC(O)C(N)CO", "note": "(stereo not drawn)", "IC50": "33.4 µM"}, {"smiles": "COc1ccc(-c2cc(-c3ccccc3O)[nH]n2)cc1", "IC50": "> 100 µM (inactive)"}, {"smiles": "CCC(C)NC(=O)C1CCN(S(=O)(=O)c2cccc3cccnc23)CC1", "note": "(stereo not drawn)", "IC50": "> 100 µM (inactive)"}, {"smiles": "O=C(O)Cc1cc(I)c(Oc2ccc(O)c(I)c2)c(I)c1", "IC50": "23.9 µM"}, {"smiles": "CCOc1ccccc1C1CC(c2ccc(Br)cc2)Nc2nc(N)nn21", "note": "(stereo not drawn)", "IC50": "> 100 µM (inactive)"}, {"smiles": "O=S(=O)(NC1CC2CCC1C2)c1ccc(Br)s1", "note": "(stereo not drawn)", "IC50": "2.07 µM"}, {"smiles": "CCOC(=O)CSc1nnc(CSc2nc(N)c3c(C)c(C)sc3n2)n1-c1ccccc1", "IC50": "> 100 µM (inactive)"}, {"smiles": "COc1ccc(CN2CN(C(C)C)CSC2=S)cc1", "IC50": "35.3 µM"}, {"smiles": "CCN1CCN(C(=O)C(NS(=O)(=O)c2ccc3nc(C)sc3c2)C(C)C)CC1", "note": "(stereo not drawn)", "IC50": "> 100 µM (inactive)"}, {"smiles": "Cc1ccc(/C(N)=N/OC(=O)c2ccc(Cl)cc2Cl)cc1", "IC50": "18.3 µM"}, {"smiles": "Cc1cccc(OCCn2cc(/C=N/NC(=O)c3ccncc3)c3ccccc32)c1", "IC50": "> 100 µM (inactive)"}, {"smiles": "C(=C\\c1nc(N2CCCCCC2)c2ccccc2n1)/c1ccccc1", "IC50": "42.1 µM"}, {"smiles": "CCC1C(=O)N=C(SCC(=O)Nc2ccccc2)NC1=O", "note": "(stereo not drawn)", "IC50": "> 100 µM (inactive)"}, {"smiles": "O=[N+]([O-])c1cccc(/C=N/n2cnnc2)c1O", "IC50": "19.7 µM"}, {"smiles": "CCCc1cc(-c2n[nH]c(=S)n2C(C)c2ccccc2)cs1", "note": "(stereo not drawn)", "IC50": "> 100 µM (inactive)"}, {"smiles": "CC(Oc1ccc2ccccc2c1)C(=O)NNC(=S)NC(=O)c1ccco1", "note": "(stereo not drawn)", "IC50": "17.7 µM"}, {"smiles": "O=C(Nc1nc(-c2ccccn2)cs1)c1ccc(Cl)s1", "IC50": "2.85 µM"}, {"smiles": "CCCCCCOC(=O)Sc1nc2ccccc2o1", "IC50": "20.2 µM"}, {"smiles": "CCc1cccc(C)c1NC(=S)NCc1ccc2[nH]c(C)cc2c1", "IC50": "37.5 µM"}, {"smiles": "Cc1sc2ncnc(N/N=C/c3ccccc3O)c2c1C", "IC50": "42.2 µM"}, {"smiles": "Cn1c(SCC(=O)N/N=C/c2ccc([N+](=O)[O-])s2)nnc1-c1ccc(Cl)cc1", "IC50": "25.3 µM"}, {"smiles": "Fc1ccc(Br)cc1C1C=C(c2cccnc2)Nc2ncnn21", "note": "(stereo not drawn)", "IC50": "> 100 µM (inactive)"}, {"smiles": "COc1ccc(Br)cc1C1CC(=O)N2CN(C)CSC2=C1C#N", "note": "(stereo not drawn)", "IC50": "> 100 µM (inactive)"}, {"smiles": "N/C(Cc1ccc(Cl)c(Cl)c1)=N\\OC(=O)c1cccs1", "IC50": "> 100 µM (inactive)"}, {"smiles": "Cc1cccc(/C(N)=N/OC(=O)c2ccc(F)cc2)c1", "IC50": "23.8 µM"}, {"smiles": "N/C(Cc1ccc(Cl)cc1)=N\\OC(=O)c1ccccc1", "IC50": "27.1 µM"}, {"smiles": "Cn1cccc1Cc1nnc(SCC(=O)Nc2nccs2)n1CCc1ccccc1", "IC50": "> 100 µM (inactive)"}, {"smiles": "COc1ccc(-c2n[nH]c(C)c2-c2ccc(Cl)cc2)c(O)c1", "IC50": "33.4 µM"}, {"smiles": "CCCCOC(=O)Sc1nc2ccccc2o1", "IC50": "16 µM"}, {"smiles": "Cc1cc(O)c(/C=N/Nc2ccccc2)c(=O)o1", "IC50": "25.2 µM"}, {"smiles": "Nc1c(Cl)ncnc1N/N=C/c1ccccn1", "IC50": "11.2 µM"}, {"smiles": "O=c1cnn([C@@H]2O[C@H](CO)[C@@H](O)[C@H]2O)c(=O)[nH]1", "IC50": "13.7 µM"}, {"smiles": "CCCCCCCOC(=O)C[N+](C)(C)CCOC1CC2CCC1(C)C2(C)C", "note": "(stereo not drawn)", "IC50": "28.4 µM"}, {"smiles": "CCCCSc1nc(C)c(C(C)=O)cc1C#N", "IC50": "> 100 µM (inactive)"}, {"smiles": "CC(C)(C)c1cc(C(c2cccnc2)N2CCN(CCO)CC2)cc(C(C)(C)C)c1O", "note": "(stereo not drawn)", "IC50": "17.3 µM"}, {"smiles": "CC(=O)N1CCN(c2ccc(OC[C@H]3CO[C@](Cn4ccnc4)(c4ccc(Cl)cc4Cl)O3)cc2)CC1", "IC50": "9.27 µM"}, {"smiles": "CC(C)c1ccc(NC(=S)NCCc2c[nH]c3ccccc23)cc1", "IC50": "> 100 µM (inactive)"}, {"smiles": "Oc1c(Cl)cc(Cl)cc1Sc1cc(Cl)cc(Cl)c1O", "IC50": "25.4 µM"}, {"smiles": "CCCCn1c(/N=C/c2c[nH]c3ccccc23)nc2ccccc21", "IC50": "> 100 µM (inactive)"}, {"smiles": "COc1ccc(-c2nncnn2)cc1", "IC50": "10 µM"}, {"smiles": "CCSc1nc(N)nc(-c2cccs2)c1C#N", "IC50": "24.8 µM"}, {"smiles": "Cc1ccc(/C(N)=N/OC(=O)c2ccc(C)cc2Cl)cc1", "IC50": "14.8 µM"}, {"smiles": "Cc1cccc(/C=C/C(=O)c2cc(Br)ccc(=O)c2O)c1", "IC50": "8.97 µM"}, {"smiles": "O=C(/C=C/c1ccccc1Cl)c1ccccc(=O)c1O", "IC50": "9.76 µM"}, {"smiles": "CCOC(=O)c1sc(=S)n(-c2cc(F)ccc2F)c1N", "IC50": "> 100 µM (inactive)"}, {"smiles": "CC(C)(C)c1cc(NCCCn2ccnc2)n2ncc(-c3ccc(Cl)cc3)c2n1", "IC50": "> 100 µM (inactive)"}, {"smiles": "O=C(OCn1ncc(Cl)c(Cl)c1=O)c1cccc(C(F)(F)F)c1", "IC50": "> 100 µM (inactive)"}, {"smiles": "Cc1ccc2[nH]c3c(c2c1)CCc1cn[nH]c1-3", "IC50": "15.6 µM"}, {"smiles": "O=C1OCC(CO)(CO)N=C1NNc1cc(Cl)ccc1Cl", "IC50": "16.2 µM"}, {"smiles": "CC(=O)N1N=C(c2ccc(Cl)cc2)OC1(C)C", "IC50": "> 100 µM (inactive)"}, {"smiles": "CC12C(=O)N(c3cccc4cccnc34)C(=O)C1C1C=CC2C1", "note": "(stereo not drawn)", "IC50": "> 100 µM (inactive)"}, {"smiles": "Cc1oc(-c2ccc3c(c2)OCCO3)cc1C(=O)O", "IC50": "16.8 µM"}, {"smiles": "CCCn1c(CNc2ccccc2O)nc2ccccc21", "IC50": "> 100 µM (inactive)"}, {"smiles": "COc1cccc2sc(Nc3nc(-c4ccccn4)cs3)nc12", "IC50": "20.4 µM"}, {"smiles": "COC(=O)c1ccc(C(=O)OC)c(NC(=O)CSc2cccc[n+]2[O-])c1", "IC50": "0.822 µM"}, {"smiles": "O=C(OCn1ncc(Cl)c(Cl)c1=O)c1ccccc1Cl", "IC50": "20.7 µM"}, {"smiles": "Oc1ccc2ccccc2c1N=Nc1ccccn1", "IC50": "35.2 µM"}]}]}
